Measurements as given in patent publication US20130065792A1, “INDUCIBLE EXPRESSION OF SGLT5, METHODS AND KITS USING THE SAME” (BOEHRINGER INGELHEIM INTERNATIONAL GMBH, priority 2011, published 2013).
Read-outs that look alike come from different tables or passages of the source. Values belong to the molecule of their own block, whether it stands above or below them.

How the values were obtained:
[1] = target: T1, SGLT5 (Homo sapiens, UniProt A0PJK1); experiment: [14C]-monosaccharide uptake inhibition assay, [14C]-mannose as substrate, stable cell lines overexpressing human SGLT-5; type: cell-based; conditions: for IC50 / pIC50 ± SEM for inhibition of hSGLT-5: [14C]-mannose as substrate
T1 construct: expressed in transfected cells; host or cells: T-Rex 293 cells (Invitrogen), stably transfected with pT-Rex-Dest30-hSGLT5; expression induced with tetracycline; deposited clone DSM ACC3096
T1 sequence (A0PJK1 1-596): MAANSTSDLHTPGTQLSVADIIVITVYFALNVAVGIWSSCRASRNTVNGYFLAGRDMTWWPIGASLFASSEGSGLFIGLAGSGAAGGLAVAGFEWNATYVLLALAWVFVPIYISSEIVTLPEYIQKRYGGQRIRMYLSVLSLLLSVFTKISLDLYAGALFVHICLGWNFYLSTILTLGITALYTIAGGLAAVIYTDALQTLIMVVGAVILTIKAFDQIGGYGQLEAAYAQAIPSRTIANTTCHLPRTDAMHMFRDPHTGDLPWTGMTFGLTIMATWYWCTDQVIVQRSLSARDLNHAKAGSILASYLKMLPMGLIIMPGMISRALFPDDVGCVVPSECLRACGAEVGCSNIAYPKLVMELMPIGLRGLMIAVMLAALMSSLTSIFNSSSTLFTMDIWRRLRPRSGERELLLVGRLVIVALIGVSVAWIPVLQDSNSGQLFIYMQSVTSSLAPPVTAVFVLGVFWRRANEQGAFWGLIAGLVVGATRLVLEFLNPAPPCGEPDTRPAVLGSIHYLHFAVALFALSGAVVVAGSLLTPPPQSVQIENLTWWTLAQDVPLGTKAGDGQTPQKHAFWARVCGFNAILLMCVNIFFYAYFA
Procedure: [^14C]-monosaccharide uptake inhibition experiments: Stable cell lines overexpressing human SGLT-5 were used for the sodium-dependent monosaccharide transport inhibition assay. […] The uptake reaction was started by the addition of 0.6 μCi [^14C]-labelled monosaccharide i.e. [^14C]-labeled alpha-methyl glucopyranoside (AMG), glucose, fructose, mannose or myo-inositol, in 0.1 mM AMG (or the respective non-radioactive monosaccharide). After incubation for 60 minutes at 37° C., the cells were washed three times with 300 μl PBS (Cambrex, Verviers, Belgium) and then lysed in 0.1 N NaOH with intermittent shaking for 5 minutes. The lysate was mixed with 200 μl MicroScint 40 and shaken for 15 minutes and counted for radioactivity in the TopCount NXT (Canberra Packard, Schwadorf, Austria). The cells were pre-incubated in pre-treatment buffer (uptake buffer containing choline chloride instead of sodium chloride) for 25 minutes prior to addition of uptake buffer. A dose-response curve was fitted to an empirical four-parameter model using XL Fit (IDBS, Guildford, UK) to determine the inhibitor concentration at half-maximal response (IC50). Human SGLT-5 was identified to be a mannose transporter and the inhibition of hSGLT-5 was assessed by a newly established [^14C]-mannose uptake assay.

[2] = target: T1, SGLT5; experiment: Time dependent specific uptake of [14C]-monosaccharides by T-Rex 293-hSGLT5 cells (FIG. 3); type: cell-based; conditions: 1 mM monosaccharide, 5-60 min, tetracycline induced T-Rex 293-hSGLT5 cells
Procedure: [^14C]-saccharide uptake experiments: 30000 cells per well were seeded in white poly-D-lysine-coated 96-well plates and incubated over night. The expression of hSGLT5 was induced 24 h before the start of uptake experiments by the addition of 1 μg/ml tetracycline to the cells. For the assay, cells were washed twice with 250 μl pre-treatment buffer [140 mM cholinchloride in basal buffer (10 mM HEPES; 5.4 mM KCl; 2.8 mM CaCl2*2 H2O; 1.2 mM MgSO4*7 H2O; 0.1% BSA, pH 7.4) and incubated in 200 μl pre-treatment buffer for 25 min at 37° C. Pre-treatment buffer was removed and 200 μl uptake buffer was added to the cells (140 mM NaCl in basal buffer containing 1 mM cold monosaccharide [either glucose, fructose, mannose, galactose or alphamethyl glucopyranoside (AMG), respectively]+0,6 μCi [^14C]-labelled monosaccharide [either glucose, fructose, mannose, galactose or alpha-methyl glucopyranoside (AMG), respectively] (Hartmann Analytics, Mannheim, Germany) and 10 μM Cytochalasin B. After incubation for 5, 10, 30 and 60 minutes at 37° C., the cells were washed three times with 300 μl PBS (Cambrex, Verviers, Belgium) and then lysed in 0.1 N NaOH with intermittent shaking for 5 min. The lysate was mixed with 200 μl MikroScint 40 Scintillator, shaken for 15 min and counted for radioactivity in the TopCount NXT (Canberra Packard, Schwadorf, Austria). Specific sugar uptake was determined by subtracting non-specific uptake of each sugar (in the presence of choline chloride) from total uptake of the same sugar (in the presence of sodium chloride).
Furthermore, a protocol was established to measure the specific uptake of monosaccharides e.g. mannose, fructose, glucose, AMG and galactose by hSGLT5, It could be shown that the transporter takes up mannose and fructose with high affinity and hardly transports glucose, AMG and galactose (FIG. 3). […] Specific uptake was calculated by subtracting the respective monosaccharide uptake in the presence of choline chloride from the total uptake of the same monosaccharide in the presence of sodium chloride.

[3] = target: T1, SGLT5; experiment: Km-determination for mannose, fructose and AMG uptake by T-Rex 293-hSGLT5 cells; type: cell-based; conditions: for Km: specific (sodium dependent) uptake of [14C]-sugar, 4 h, T-Rex 293-hSGLT5 cells, three assays in parallel, read-out: Affinity for SGLT5 (Km)
Procedure: (§1) [^14C]-monosaccharide uptake inhibition experiments: Stable cell lines overexpressing human SGLT-5 were used for the sodium-dependent monosaccharide transport inhibition assay. Cells were pre-incubated in 200 μl uptake buffer (10 mM HEPES, 137 mM NaCl, 5.4 mM KCl, 2.8 mM CaCl2, 1.2 mM MgCl2, 50 μg/ml Gentamycin, 0.1% BSA) for 25 minutes at 37° C. 10 μM Cytochalasin B and test compound was added at different concentrations 15 minutes before the initiation of the uptake experiment.
(§2) The uptake reaction was started by the addition of 0.6 μCi [^14C]-labelled monosaccharide i.e. [^14C]-labeled alpha-methyl glucopyranoside (AMG), glucose, fructose, mannose or myo-inositol, in 0.1 mM AMG (or the respective non-radioactive monosaccharide).
(§3) After incubation for 60 minutes at 37° C., the cells were washed three times with 300 μl PBS (Cambrex, Verviers, Belgium) and then lysed in 0.1 N NaOH with intermittent shaking for 5 minutes. The lysate was mixed with 200 μl MicroScint 40 and shaken for 15 minutes and counted for radioactivity in the TopCount NXT (Canberra Packard, Schwadorf, Austria). The cells were pre-incubated in pre-treatment buffer (uptake buffer containing choline chloride instead of sodium chloride) for 25 minutes prior to addition of uptake buffer.
Km-determination for mannose, fructose and Alpha-Methylglucose (AMG) uptake by SGLT5: The uptake of Mannose, Fructose and AMG was assayed as described under “[^14C]-monosaccharide uptake inhibition experiments” in the absence (nonspecific uptake) or presence of sodium (Total uptake) in the buffer at different concentrations of the respective monosaccharide for 4 h. From the difference of Total uptake and Nonspecific uptake the Specific uptake was calculated and the Km was determined using the Program Graph Pad Prism (LaJolla, Calif., USA).
(§4) The measured affinity curves measured in three assays run in parallel are shown in FIG. 4A (for mannose), 4B (for fructose) and 4C (for AMG).

[4] = substrate: O=C(CO)[C@@H](O)[C@H](O)[C@H](O)CO; experiment: as above; type: cell-based, human; conditions: other: specific (sodium dependent) uptake of [14C]-sugar, 4 h, three assays in parallel, 37.0 °C
Procedure: as §1, §2
as §3, with “The cells were pre-incubated in pre-treatment buffer (uptake buffer containing choline chloride instead of sodium chloride) for 25 minutes prior to addition of uptake buffer.” left out
as §4

[5] = 60 minutes at 37° C., at least three independent experiments, read-out: Mean IC50 for inhibition of hSGLT-5

Molecule: O=C(CO)[C@@H](O)[C@H](O)[C@H](O)CO [Fructose]
specific uptake / affinity for hSGLT5 (in words) [2]: high affinity
Km fold higher than the Km for mannose ([3]; ratio of Km values): 6.67 fold
Km [3]: ≤ 2 mM

Molecule: Cc1ccc([C@@H]2O[C@H](CO)[C@@H](O)[C@H](O)[C@H]2O)cc1Cc1ccc(-c2ccc(F)cc2)s1 [Canagliflozin]
IC50 [1, 5]: 1700 nM
pIC50 ± SEM for inhibition of hSGLT-5 ([1]; given with negative sign): 5.77 ± 0.12

Molecule: COc1ccc(Cc2ccccc2O[C@@H]2O[C@H](CO)[C@@H](O)[C@H](O)[C@H]2O)cc1 [Sergliflozin]
IC50 [1, 5]: 1100 nM
pIC50 ± SEM for inhibition of hSGLT-5 ([1]; given with negative sign): 5.95

Molecule: O=C(CCc1ccc(O)cc1)c1c(O)cc(O)cc1O[C@@H]1O[C@H](CO)[C@@H](O)[C@H](O)[C@H]1O [Phlorizin]
IC50 [1, 5]: 1500 nM

Molecule: COC1OC(CO)C(O)C(O)C1O (stereo not drawn) [AMG, alpha-methyl glucopyranoside]
specific uptake / affinity for hSGLT5 (in words) [2]: very low affinity
Km fold higher than the Km for fructose ([3]; ratio of Km values): at least 5 fold
Km fold higher than the Km for mannose ([3]; ratio of Km values): at least 33 fold
Km [3]: 10.1 mM

B1: SGLT5 (Homo sapiens) (protein)
chain: T1 sequence (A0PJK1 1-596)
notes: expressed in transfected cells; host or cells: T-Rex 293 cells (Invitrogen), stably transfected with pT-Rex-Dest30-hSGLT5; expression induced with tetracycline; deposited clone DSM ACC3096
Km [4]: 2.0 mM

Continued by falling IC50 [1, 5], values first:

IC50 [1, 5]: 1100 nM
IC50 ([1]; given with negative sign, read-out: pIC50 ± SEM for inhibition of hSGLT-5 (converted)): 1050 nM
Molecule: OC[C@H]1O[C@@H](c2ccc(Cl)c(Cc3ccc(O[C@H]4CCOC4)cc3)c2)[C@H](O)[C@@H](O)[C@@H]1O [Compound A, D-glucitol, 1,5-anhydro-1-C-[4-chloro-3-[[4-[[(3S)-tetrahydro-3-furanyl]oxy]phenyl]methyl]phenyl]-, (1S)-]

IC50 [1, 5]: 1100 nM
pIC50 ± SEM for inhibition of hSGLT-5 ([1]; given with negative sign): 5.97 ± 0.19
Molecule: Cc1cc(O)c(C(=O)CCc2ccc3occc3c2)c(O[C@@H]2O[C@H](CO)[C@@H](O)[C@H](O)[C@H]2O)c1 [Compound T1095A]

IC50 [1, 5]: 820 nM
Molecule: CCOc1ccc(Cc2cc([C@@H]3O[C@H](CO)[C@@H](O)[C@H](O)[C@H]3O)ccc2Cl)cc1 [Dapagliflozin]

IC50 [1, 5]: 740 nM
Molecule: OC[C@H]1O[C@@H](c2ccc(F)c(Cc3cc4ccccc4s3)c2)[C@H](O)[C@@H](O)[C@@H]1O [ASP-1941]

selectivity over SGLT-2 ([1]; SGLT-5 versus SGLT-2): < 15 fold
IC50 [1, 5]: 190 nM
Molecule: Cc1c(Cc2ccc(OC(C)C)cc2)c(O[C@@H]2O[C@H](CO)[C@@H](O)[C@H](O)[C@H]2O)nn1C(C)C [Remogliflozin]
